Test results from ChEMBL document CHEMBL1201862, “PubChem BioAssay data set” (2004).
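Briefly, cells in 96-well plates were exposed to five compound concentrations for 48 h, and endpoints were estimated by linear interpolation. GI50 marks 50% less growth.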 Calls of active or inactive are those of the source. Cut-off read from the data, not from the text of the source: active = GI50 up to about 1.1 µM and inactive = higher.

Assays:
Experiment in all cases: NCI-60 cell line screen, 48 h
OVCAR-4 = test system: OVCAR-4
SNB-75 = test system: SNB-75
OVCAR-3 = test system: OVCAR-3
IGROV-1 = test system: IGROV-1
ACHN = test system: ACHN
SR = test system: SR
HCC 2998 = test system: HCC 2998
HT-29 = test system: HT-29
SW-620 = test system: SW-620
TK-10 = test system: TK-10
SF-268 = test system: SF-268
SF-295 = test system: SF-295
A549 = test system: A549
Malme-3M = test system: Malme-3M
COLO 205 = test system: COLO 205
SK-MEL-5 = test system: SK-MEL-5
NCI-H226 = test system: NCI-H226
MDA-MB-231 = test system: MDA-MB-231
NCI/ADR-RES = test system: NCI/ADR-RES

Measured: GI50

Cc1nn(-c2nc3ccccc3s2)c2c1C(=O)c1ccccc1-2
inactive: OVCAR-4 26.9 µM | SNB-75 > 100 µM | OVCAR-3 > 100 µM | IGROV-1 > 100 µM | ACHN > 100 µM | SR > 100 µM | HCC 2998 > 100 µM | HT-29 > 100 µM | SW-620 > 100 µM | TK-10 > 100 µM | SF-268 > 100 µM | SF-295 > 100 µM | A549 > 100 µM | Malme-3M > 100 µM | COLO 205 > 100 µM | SK-MEL-5 > 100 µM

NC1N=Nc2ccccc21 (stereo unspecified)
inactive: OVCAR-4 > 100 µM | SNB-75 > 100 µM | OVCAR-3 > 100 µM | IGROV-1 > 100 µM | ACHN > 100 µM | SR > 100 µM | HCC 2998 > 100 µM | HT-29 > 100 µM | SW-620 > 100 µM | TK-10 > 100 µM | SF-268 > 100 µM | SF-295 > 100 µM | A549 > 100 µM | Malme-3M > 100 µM | COLO 205 > 100 µM | NCI-H226 > 100 µM

CCCCNC(=NC#N)NCCCC
inactive: OVCAR-4 > 100 µM | SNB-75 > 100 µM | OVCAR-3 > 100 µM | IGROV-1 > 100 µM | ACHN > 100 µM | SR 78.7 µM | HCC 2998 > 100 µM | HT-29 > 100 µM | SW-620 21.3 µM | TK-10 > 100 µM | SF-268 > 100 µM | SF-295 > 100 µM | A549 > 100 µM | Malme-3M > 100 µM | COLO 205 38.2 µM | SK-MEL-5 > 100 µM | NCI-H226 > 100 µM

Cc1cc(C)nc(Nc2nc3cc([N+](=O)[O-])ccc3[nH]2)n1
inactive: OVCAR-4 > 100 µM | OVCAR-3 > 100 µM | IGROV-1 > 100 µM | ACHN > 100 µM | SR > 100 µM | HCC 2998 > 100 µM | HT-29 > 100 µM | SW-620 > 100 µM | TK-10 > 100 µM | SF-268 > 100 µM | SF-295 > 100 µM | A549 > 100 µM | Malme-3M > 100 µM | COLO 205 > 100 µM | SK-MEL-5 > 100 µM | NCI-H226 > 100 µM

N#CCCN(c1ccc(/C=N/c2ccccc2)cc1)S(=O)(=O)c1ccccc1
inactive: OVCAR-4 > 100 µM | SNB-75 > 100 µM | OVCAR-3 > 100 µM | IGROV-1 > 100 µM | SR > 100 µM | HCC 2998 5.22 µM | HT-29 17 µM | SW-620 > 100 µM | TK-10 > 100 µM | SF-268 > 100 µM | SF-295 12.4 µM | A549 > 100 µM | Malme-3M 41.4 µM | COLO 205 > 100 µM | SK-MEL-5 > 100 µM | NCI-H226 > 100 µM

C/C(=N\NS(=O)(=O)c1ccc([N+](=O)[O-])cc1)c1ccc[n+]([O-])n1
inactive: OVCAR-4 1.35 µM | SNB-75 1.95 µM | OVCAR-3 2.23 µM | IGROV-1 3.79 µM | ACHN 2.44 µM | SR 3.92 µM | HCC 2998 9.46 µM | HT-29 2.11 µM | SW-620 2.29 µM | TK-10 11.6 µM | SF-268 2.33 µM | SF-295 1.9 µM | A549 2.19 µM | Malme-3M 3.09 µM | COLO 205 2.67 µM | SK-MEL-5 2.35 µM | NCI-H226 1.77 µM

COC1OC(C)C(OC(=O)C(C)(C)C)C(OS(=O)(=O)c2ccc(C)cc2)C1OS(=O)(=O)c1ccc(C)cc1 (stereo unspecified)
inactive: OVCAR-4 > 100 µM | SNB-75 77.8 µM | OVCAR-3 > 100 µM | IGROV-1 > 100 µM | ACHN > 100 µM | SR 15.4 µM | HCC 2998 > 100 µM | HT-29 > 100 µM | SW-620 > 100 µM | SF-268 > 100 µM | SF-295 > 100 µM | A549 > 100 µM | Malme-3M > 100 µM | COLO 205 > 100 µM | SK-MEL-5 > 100 µM | NCI-H226 > 100 µM

O=C1C(Cl)C(c2ccc(O)cc2)N1n1cnc2ccccc2c1=O (stereo unspecified)
inactive: OVCAR-4 25.5 µM | SNB-75 49 µM | OVCAR-3 32 µM | IGROV-1 > 57.5 µM | ACHN 16 µM | SR 18.8 µM | HCC 2998 61.8 µM | HT-29 29.4 µM | SW-620 22.5 µM | TK-10 40.6 µM | SF-268 45.6 µM | SF-295 98.4 µM | A549 > 100 µM | Malme-3M 37.2 µM | COLO 205 25.3 µM | SK-MEL-5 52.8 µM | NCI-H226 > 100 µM

O=[N+]([O-])c1ccc(C2CC(c3ccc(NCc4nc5ccccc5[nH]4)cc3)=NO2)cc1 (stereo unspecified)
inactive: OVCAR-4 14.3 µM | SNB-75 > 100 µM | OVCAR-3 3.56 µM | IGROV-1 75.7 µM | ACHN 33.3 µM | SR 4.93 µM | HCC 2998 85.5 µM | HT-29 38.5 µM | SW-620 33.5 µM | TK-10 89.3 µM | SF-268 > 100 µM | SF-295 21.8 µM | A549 98.2 µM | Malme-3M 34.4 µM | COLO 205 > 100 µM | SK-MEL-5 9.04 µM

O=C(/C=N/c1ccccc1[S-])c1ccco1.O=C(/C=N/c1ccccc1[S-])c1ccco1.[Zn+2]
inactive: SNB-75 8.28 µM | OVCAR-3 15.2 µM | IGROV-1 5.14 µM | ACHN 5.46 µM | SR 6.58 µM | HCC 2998 10 µM | HT-29 18.7 µM | SW-620 10.9 µM | TK-10 16.7 µM | SF-268 17.9 µM | SF-295 3.78 µM | A549 3.98 µM | Malme-3M 10 µM | COLO 205 17.5 µM | SK-MEL-5 16.9 µM

COc1ccc(/C=C/c2cc(OC)c(O[Si](C)(C)C(C)(C)C)c(OC)c2)cc1
inactive: OVCAR-4 49.9 µM | SNB-75 84.7 µM | OVCAR-3 > 100 µM | IGROV-1 > 100 µM | ACHN > 100 µM | SR > 10 µM | HCC 2998 > 100 µM | HT-29 > 100 µM | SW-620 > 100 µM | SF-268 > 100 µM | A549 > 100 µM | Malme-3M 24.2 µM | COLO 205 > 100 µM | SK-MEL-5 54.1 µM | NCI-H226 30.3 µM

CCC/C=C/c1cc2c(cc1O)CC[C@@H]1[C@@H]2CC[C@]2(C)[C@@H](O)CC[C@@H]12
inactive: OVCAR-4 19 µM | SNB-75 16.4 µM | OVCAR-3 19.2 µM | IGROV-1 21.1 µM | ACHN 16.7 µM | SR 15.4 µM | HCC 2998 21.5 µM | HT-29 18.4 µM | SW-620 20.6 µM | TK-10 20.7 µM | SF-268 18.4 µM | SF-295 17.6 µM | A549 18.1 µM | MDA-MB-231 15.5 µM | Malme-3M 16.5 µM | COLO 205 19.1 µM | SK-MEL-5 16.4 µM | NCI/ADR-RES 18.5 µM | NCI-H226 24.7 µM
